How the values were obtained:
[1] = target: T1, CDK18/cyclin Y (PCTK3) (Homo sapiens, UniProt Q07002); test: HotSpot kinase assay; type: biochemical; conditions: read-out: % Enzyme Activity (relative to DMSO controls)
T1 construct: purchased Reaction Biology Corporation

[2] = target: T2, PKCtheta (Homo sapiens, UniProt Q04759); test: HotSpot kinase assay; type: biochemical; conditions: read-out: % Enzyme Activity (relative to DMSO controls)
T2 construct: purchased Reaction Biology Corporation

[3] = target: T3, AKT2 (Homo sapiens, UniProt P31751); test: biochemical
T3 construct: purchased Reaction Biology Corporation

[4] = target: T4, LRRK2 (Homo sapiens, UniProt Q5S007); test: HotSpot kinase assay; type: biochemical; conditions: read-out: % Enzyme Activity (relative to DMSO controls)
T4 construct: purchased Reaction Biology Corporation

[5] = target: T5, TSSK3/STK22C (Homo sapiens, UniProt Q96PN8); test: HotSpot kinase assay; type: biochemical; conditions: read-out: % Enzyme Activity (relative to DMSO controls)
T5 construct: purchased Reaction Biology Corporation

[6] = target: T6, PKN3/PRK3 (Homo sapiens, UniProt Q6P5Z2); test: HotSpot kinase assay; type: biochemical; conditions: read-out: % Enzyme Activity (relative to DMSO controls)
T6 construct: purchased Reaction Biology Corporation

[7] = target: T7, SIK2 (Homo sapiens, UniProt Q9H0K1); test: HotSpot kinase assay; type: biochemical; conditions: read-out: % Enzyme Activity (relative to DMSO controls)
T7 construct: purchased Reaction Biology Corporation

[8] = target: T8, PIM3 (Homo sapiens, UniProt Q86V86); test: HotSpot kinase assay; type: biochemical; conditions: read-out: % Enzyme Activity (relative to DMSO controls)
T8 construct: purchased Reaction Biology Corporation

[9] = target: T9, PBK/TOPK (Homo sapiens, UniProt Q96KB5); test: HotSpot kinase assay; type: biochemical; conditions: read-out: % Enzyme Activity (relative to DMSO controls)
T9 construct: purchased Reaction Biology Corporation

[10] = target: T10, NEK2 (Homo sapiens, UniProt P51955); test: HotSpot kinase assay; type: biochemical; conditions: read-out: % Enzyme Activity (relative to DMSO controls)
T10 construct: purchased Reaction Biology Corporation

[11] = target: T11, ERK1 (Homo sapiens, UniProt P27361); test: HotSpot kinase assay; type: biochemical; conditions: 10µM; read-out: % Enzyme Activity (relative to DMSO controls)
T11 construct: purchased Reaction Biology Corporation
Protocol: (§1) Kinase activity were performed by Reaction Biology Corporation using the “HotSpot” assay platform modified from the published procedure.

[12] = target: T12, ZAK/MLTK (Homo sapiens, UniProt Q9NYL2); test: HotSpot kinase assay; type: biochemical; conditions: 10µM; read-out: % Enzyme Activity (relative to DMSO controls)
T12 construct: purchased Reaction Biology Corporation
Protocol: as §1

[13] = target: T13, HPK1/MAP4K1 (Homo sapiens, UniProt Q92918); test: HotSpot kinase assay; type: biochemical; conditions: 10µM; read-out: % Enzyme Activity (relative to DMSO controls)
T13 construct: purchased Reaction Biology Corporation
Protocol: as §1

[14] = target: T14, AMPK(A2/B1/G1) (Homo sapiens, UniProt P54646); test: HotSpot kinase assay; type: biochemical; conditions: 10µM; read-out: % Enzyme Activity (relative to DMSO controls)
T14 construct: purchased Reaction Biology Corporation
Protocol: as §1

[15] = target: T15, VRK2 (Homo sapiens, UniProt Q86Y07); test: HotSpot kinase assay; type: biochemical; conditions: 10µM; read-out: % Enzyme Activity (relative to DMSO controls)
T15 construct: purchased Reaction Biology Corporation
Protocol: as §1

[16] = target: T16, TRPM7/CHAK1 (Homo sapiens, UniProt Q96QT4); test: HotSpot kinase assay; type: biochemical; conditions: 10µM; read-out: % Enzyme Activity (relative to DMSO controls)
T16 construct: purchased Reaction Biology Corporation
Protocol: as §1

[17] = target: T17, WEE1 (Homo sapiens, UniProt P30291); test: HotSpot kinase assay; type: biochemical; conditions: read-out: % Enzyme Activity (relative to DMSO controls)
T17 construct: purchased Reaction Biology Corporation
Protocol: as §1

[18] = target: T18, NEK3 (Homo sapiens, UniProt P51956); test: HotSpot kinase assay; type: biochemical; conditions: 10µM; read-out: % Enzyme Activity (relative to DMSO controls)
T18 construct: purchased Reaction Biology Corporation
Protocol: as §1

[19] = target: T19, AMPK(A1/B1/G1) (Homo sapiens, UniProt Q13131); test: HotSpot kinase assay; type: biochemical; conditions: 10µM; read-out: % Enzyme Activity (relative to DMSO controls)
T19 construct: purchased Reaction Biology Corporation
Protocol: as §1

[20] = target: T20, NEK6 (Homo sapiens, UniProt Q9HC98); test: HotSpot kinase assay; type: biochemical; conditions: 10µM; read-out: % Enzyme Activity (relative to DMSO controls)
T20 construct: purchased Reaction Biology Corporation
Protocol: as §1

[21] = target: T21, WNK3 (Homo sapiens, UniProt Q9BYP7); test: HotSpot kinase assay; type: biochemical; conditions: 10µM; read-out: % Enzyme Activity (relative to DMSO controls)
T21 construct: purchased Reaction Biology Corporation
Protocol: as §1

[22] = target: T22, AMPK(A1/B1/G2) (Homo sapiens, UniProt Q13131); test: HotSpot kinase assay; type: biochemical; conditions: 10µM; read-out: % Enzyme Activity (relative to DMSO controls)
T22 construct: purchased Reaction Biology Corporation
Protocol: as §1

[23] = target: T23, TTBK1 (Homo sapiens, UniProt Q5TCY1); test: HotSpot kinase assay; type: biochemical; conditions: 10µM; read-out: % Enzyme Activity (relative to DMSO controls)
T23 construct: purchased Reaction Biology Corporation
Protocol: as §1

[24] = target: T24, NEK7 (Homo sapiens, UniProt Q8TDX7); test: HotSpot kinase assay; type: biochemical; conditions: 10µM; read-out: % Enzyme Activity (relative to DMSO controls)
T24 construct: purchased Reaction Biology Corporation
Protocol: as §1

[25] = target: T25, HIPK1 (Homo sapiens, UniProt Q86Z02); test: HotSpot kinase assay; type: biochemical; conditions: 10µM; read-out: % Enzyme Activity (relative to DMSO controls)
T25 construct: purchased Reaction Biology Corporation
Protocol: as §1

[26] = target: T26, AMPK(A2/B2/G1) (Homo sapiens, UniProt P54646); test: HotSpot kinase assay; type: biochemical; conditions: 10µM; read-out: % Enzyme Activity (relative to DMSO controls)
T26 construct: purchased Reaction Biology Corporation
Protocol: as §1

[27] = target: T27, ARAF (Homo sapiens, UniProt P10398); test: HotSpot kinase assay; type: biochemical; conditions: 10µM; read-out: % Enzyme Activity (relative to DMSO controls)
T27 construct: purchased Reaction Biology Corporation
Protocol: as §1

[28] = target: T28, AMPK(A2/B2/G3) (Homo sapiens, UniProt P54646); test: HotSpot kinase assay; type: biochemical; conditions: 10µM; read-out: % Enzyme Activity (relative to DMSO controls)
T28 construct: purchased Reaction Biology Corporation
Protocol: as §1

[29] = target: T29, PDK1/PDHK1 (Homo sapiens, UniProt Q15118); test: HotSpot kinase assay; type: biochemical; conditions: 10µM; read-out: % Enzyme Activity (relative to DMSO controls)
T29 construct: purchased Reaction Biology Corporation
Protocol: as §1

[30] = target: T30, CK2a (Homo sapiens, UniProt P68400); test: HotSpot kinase assay; type: biochemical; conditions: 10µM; read-out: % Enzyme Activity (relative to DMSO controls)
T30 construct: purchased Reaction Biology Corporation
Protocol: as §1

[31] = target: T31, PDK2/PDHK2 (Homo sapiens, UniProt Q15119); test: HotSpot kinase assay; type: biochemical; conditions: 10µM; read-out: % Enzyme Activity (relative to DMSO controls)
T31 construct: purchased Reaction Biology Corporation
Protocol: as §1

[32] = target: T32, VRK1 (Homo sapiens, UniProt Q99986); test: HotSpot kinase assay; type: biochemical; conditions: 10µM; read-out: % Enzyme Activity (relative to DMSO controls)
T32 construct: purchased Reaction Biology Corporation
Protocol: as §1

[33] = target: T33, PDK3/PDHK3 (Homo sapiens, UniProt Q15120); test: HotSpot kinase assay; type: biochemical; conditions: 10µM; read-out: % Enzyme Activity (relative to DMSO controls)
T33 construct: purchased Reaction Biology Corporation
Protocol: as §1

[34] = target: T34, KSR1 (Homo sapiens, UniProt Q8IVT5); test: biochemical; conditions: read-out: % Enzyme Activity (relative to DMSO controls)
T34 construct: purchased Reaction Biology Corporation

[35] = target: T35, HIPK4 (Homo sapiens, UniProt Q8NE63); test: HotSpot kinase assay; type: biochemical; conditions: read-out: % Enzyme Activity (relative to DMSO controls)
T35 construct: purchased Reaction Biology Corporation

[36] = target: T36, CLK3 (Homo sapiens, UniProt P49761); test: HotSpot kinase assay; type: biochemical; conditions: read-out: % Enzyme Activity (relative to DMSO controls)
T36 construct: purchased Reaction Biology Corporation

[37] = target: T37, BMX/ETK (Homo sapiens, UniProt P51813); test: HotSpot kinase assay; type: biochemical; conditions: read-out: % Enzyme Activity (relative to DMSO controls)
T37 construct: purchased Reaction Biology Corporation

[38] = target: T38, ERN2/IRE2 (Homo sapiens, UniProt Q76MJ5); test: HotSpot kinase assay; type: biochemical; conditions: read-out: % Enzyme Activity (relative to DMSO controls)
T38 construct: purchased Reaction Biology Corporation

[39] = target: T39, PKCa (Homo sapiens, UniProt P17252); test: HotSpot kinase assay; type: biochemical; conditions: read-out: % Enzyme Activity (relative to DMSO controls)
T39 construct: purchased Reaction Biology Corporation

[40] = in vitro; conditions: human, Huh-7.5 cells infected with SARS-CoV-2

T3 sequence (P31751 whole entry): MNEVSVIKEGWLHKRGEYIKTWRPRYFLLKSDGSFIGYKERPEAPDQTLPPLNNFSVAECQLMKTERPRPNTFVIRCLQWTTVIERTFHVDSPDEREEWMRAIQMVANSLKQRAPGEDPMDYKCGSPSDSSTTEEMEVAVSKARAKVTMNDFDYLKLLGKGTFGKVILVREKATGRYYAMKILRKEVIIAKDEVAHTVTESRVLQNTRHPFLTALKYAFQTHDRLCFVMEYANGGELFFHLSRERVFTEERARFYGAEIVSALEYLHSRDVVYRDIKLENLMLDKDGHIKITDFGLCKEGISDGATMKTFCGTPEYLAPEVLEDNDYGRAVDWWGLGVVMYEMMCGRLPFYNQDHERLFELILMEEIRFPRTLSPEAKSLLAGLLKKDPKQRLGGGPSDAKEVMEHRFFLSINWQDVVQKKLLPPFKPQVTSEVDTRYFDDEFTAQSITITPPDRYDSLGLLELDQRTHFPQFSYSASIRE
T25 sequence (Q86Z02 whole entry): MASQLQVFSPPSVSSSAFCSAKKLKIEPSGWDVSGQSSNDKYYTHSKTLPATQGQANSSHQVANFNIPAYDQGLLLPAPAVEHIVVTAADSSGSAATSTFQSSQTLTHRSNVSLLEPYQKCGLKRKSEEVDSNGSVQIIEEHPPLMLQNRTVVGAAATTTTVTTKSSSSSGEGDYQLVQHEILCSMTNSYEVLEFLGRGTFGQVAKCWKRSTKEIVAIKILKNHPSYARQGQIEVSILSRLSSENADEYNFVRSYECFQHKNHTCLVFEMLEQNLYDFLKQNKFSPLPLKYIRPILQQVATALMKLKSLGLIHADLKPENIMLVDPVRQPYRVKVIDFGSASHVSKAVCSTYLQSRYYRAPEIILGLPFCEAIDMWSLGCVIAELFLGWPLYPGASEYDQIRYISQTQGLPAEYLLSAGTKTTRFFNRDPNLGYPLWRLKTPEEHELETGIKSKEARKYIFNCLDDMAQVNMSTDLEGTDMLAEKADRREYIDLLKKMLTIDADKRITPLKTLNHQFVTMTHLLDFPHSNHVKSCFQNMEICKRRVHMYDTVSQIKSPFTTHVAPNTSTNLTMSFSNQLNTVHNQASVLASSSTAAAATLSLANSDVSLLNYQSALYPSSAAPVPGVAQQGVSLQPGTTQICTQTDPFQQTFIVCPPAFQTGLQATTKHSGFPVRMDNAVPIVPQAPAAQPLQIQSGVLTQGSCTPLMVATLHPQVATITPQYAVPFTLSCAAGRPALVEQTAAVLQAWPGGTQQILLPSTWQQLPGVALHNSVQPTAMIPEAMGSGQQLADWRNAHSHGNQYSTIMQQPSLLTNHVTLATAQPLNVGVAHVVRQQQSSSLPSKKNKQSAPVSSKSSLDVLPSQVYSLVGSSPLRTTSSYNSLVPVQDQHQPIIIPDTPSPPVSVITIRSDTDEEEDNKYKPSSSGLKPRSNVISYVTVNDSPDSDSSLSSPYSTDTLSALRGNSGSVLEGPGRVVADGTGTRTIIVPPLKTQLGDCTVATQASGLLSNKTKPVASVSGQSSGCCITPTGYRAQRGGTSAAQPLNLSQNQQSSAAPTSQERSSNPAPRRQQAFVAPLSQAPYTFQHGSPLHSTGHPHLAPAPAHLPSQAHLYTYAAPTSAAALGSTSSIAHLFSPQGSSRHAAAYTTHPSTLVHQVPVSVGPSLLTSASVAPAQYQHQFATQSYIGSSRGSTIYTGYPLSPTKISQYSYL
T13 sequence (Q92918 whole entry): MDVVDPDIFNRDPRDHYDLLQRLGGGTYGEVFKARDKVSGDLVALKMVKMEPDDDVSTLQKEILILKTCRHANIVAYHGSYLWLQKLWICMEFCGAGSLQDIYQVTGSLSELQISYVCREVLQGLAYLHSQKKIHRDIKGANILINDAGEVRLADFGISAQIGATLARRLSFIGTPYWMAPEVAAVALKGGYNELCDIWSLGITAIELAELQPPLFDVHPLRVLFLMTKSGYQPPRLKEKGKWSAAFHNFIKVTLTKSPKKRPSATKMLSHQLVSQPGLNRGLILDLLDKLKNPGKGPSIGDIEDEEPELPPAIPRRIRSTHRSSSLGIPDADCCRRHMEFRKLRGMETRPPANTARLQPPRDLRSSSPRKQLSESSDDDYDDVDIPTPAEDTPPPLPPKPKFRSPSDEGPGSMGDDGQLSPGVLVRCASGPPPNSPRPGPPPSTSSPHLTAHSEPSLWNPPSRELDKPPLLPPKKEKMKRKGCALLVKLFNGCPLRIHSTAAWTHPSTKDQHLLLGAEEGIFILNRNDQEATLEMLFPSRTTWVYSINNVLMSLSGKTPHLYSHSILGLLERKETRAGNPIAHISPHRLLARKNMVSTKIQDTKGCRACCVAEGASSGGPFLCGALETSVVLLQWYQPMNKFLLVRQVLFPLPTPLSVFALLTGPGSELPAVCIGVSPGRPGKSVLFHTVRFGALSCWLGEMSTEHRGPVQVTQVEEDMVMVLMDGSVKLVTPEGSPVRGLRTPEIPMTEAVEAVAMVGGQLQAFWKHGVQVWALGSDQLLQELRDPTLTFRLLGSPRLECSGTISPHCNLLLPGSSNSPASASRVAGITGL
T29 sequence (Q15118 29-436): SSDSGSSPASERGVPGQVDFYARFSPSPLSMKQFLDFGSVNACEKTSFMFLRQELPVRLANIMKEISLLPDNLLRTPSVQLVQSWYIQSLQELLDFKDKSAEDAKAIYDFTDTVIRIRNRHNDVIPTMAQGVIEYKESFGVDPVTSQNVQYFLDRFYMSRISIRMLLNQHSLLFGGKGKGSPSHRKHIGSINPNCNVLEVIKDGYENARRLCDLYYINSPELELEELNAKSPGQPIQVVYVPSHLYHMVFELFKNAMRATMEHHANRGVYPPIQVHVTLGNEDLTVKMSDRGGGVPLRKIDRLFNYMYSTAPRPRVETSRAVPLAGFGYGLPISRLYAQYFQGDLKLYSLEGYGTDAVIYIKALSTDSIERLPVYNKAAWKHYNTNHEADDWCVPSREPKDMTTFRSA
T24 sequence (Q8TDX7 whole entry): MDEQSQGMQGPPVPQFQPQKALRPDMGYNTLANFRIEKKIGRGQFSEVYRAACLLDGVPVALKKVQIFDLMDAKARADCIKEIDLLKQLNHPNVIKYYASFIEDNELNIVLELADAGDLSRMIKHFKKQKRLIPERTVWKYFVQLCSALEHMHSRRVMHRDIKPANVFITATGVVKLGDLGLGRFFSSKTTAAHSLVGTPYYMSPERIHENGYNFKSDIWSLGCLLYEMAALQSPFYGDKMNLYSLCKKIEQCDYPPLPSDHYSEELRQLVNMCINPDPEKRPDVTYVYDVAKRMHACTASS
T23 sequence (Q5TCY1 whole entry): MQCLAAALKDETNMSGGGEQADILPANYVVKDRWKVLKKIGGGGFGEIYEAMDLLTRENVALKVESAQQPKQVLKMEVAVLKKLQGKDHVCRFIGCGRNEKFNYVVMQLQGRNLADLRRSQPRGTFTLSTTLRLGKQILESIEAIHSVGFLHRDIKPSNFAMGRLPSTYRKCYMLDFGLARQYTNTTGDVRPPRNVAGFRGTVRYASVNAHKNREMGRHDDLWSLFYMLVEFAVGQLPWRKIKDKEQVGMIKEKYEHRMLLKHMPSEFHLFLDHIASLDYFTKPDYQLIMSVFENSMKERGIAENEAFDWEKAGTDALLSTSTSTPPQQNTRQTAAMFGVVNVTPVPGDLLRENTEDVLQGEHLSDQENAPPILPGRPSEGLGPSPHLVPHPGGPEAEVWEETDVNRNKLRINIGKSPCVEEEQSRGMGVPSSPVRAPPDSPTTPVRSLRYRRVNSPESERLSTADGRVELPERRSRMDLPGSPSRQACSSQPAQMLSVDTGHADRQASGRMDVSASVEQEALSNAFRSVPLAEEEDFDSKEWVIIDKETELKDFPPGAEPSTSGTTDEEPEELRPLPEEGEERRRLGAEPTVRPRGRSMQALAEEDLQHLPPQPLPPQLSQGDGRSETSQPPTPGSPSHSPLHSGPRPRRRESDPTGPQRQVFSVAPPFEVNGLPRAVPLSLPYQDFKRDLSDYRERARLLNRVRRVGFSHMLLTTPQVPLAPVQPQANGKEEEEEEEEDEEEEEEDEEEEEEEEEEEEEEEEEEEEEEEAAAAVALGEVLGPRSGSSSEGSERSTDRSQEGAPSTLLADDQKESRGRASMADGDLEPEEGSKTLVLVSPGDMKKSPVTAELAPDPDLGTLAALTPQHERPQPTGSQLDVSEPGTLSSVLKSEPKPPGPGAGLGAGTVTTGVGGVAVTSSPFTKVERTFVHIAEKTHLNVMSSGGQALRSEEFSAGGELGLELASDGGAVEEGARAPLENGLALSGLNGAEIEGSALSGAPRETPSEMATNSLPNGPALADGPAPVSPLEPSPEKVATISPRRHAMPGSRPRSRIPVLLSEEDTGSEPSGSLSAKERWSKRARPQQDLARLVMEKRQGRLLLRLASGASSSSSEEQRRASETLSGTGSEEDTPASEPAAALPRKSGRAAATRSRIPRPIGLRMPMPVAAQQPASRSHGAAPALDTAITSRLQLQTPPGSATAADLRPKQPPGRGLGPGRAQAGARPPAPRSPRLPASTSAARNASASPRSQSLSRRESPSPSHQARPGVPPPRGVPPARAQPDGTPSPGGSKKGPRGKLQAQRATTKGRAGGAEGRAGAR
T11 sequence (P27361 whole entry): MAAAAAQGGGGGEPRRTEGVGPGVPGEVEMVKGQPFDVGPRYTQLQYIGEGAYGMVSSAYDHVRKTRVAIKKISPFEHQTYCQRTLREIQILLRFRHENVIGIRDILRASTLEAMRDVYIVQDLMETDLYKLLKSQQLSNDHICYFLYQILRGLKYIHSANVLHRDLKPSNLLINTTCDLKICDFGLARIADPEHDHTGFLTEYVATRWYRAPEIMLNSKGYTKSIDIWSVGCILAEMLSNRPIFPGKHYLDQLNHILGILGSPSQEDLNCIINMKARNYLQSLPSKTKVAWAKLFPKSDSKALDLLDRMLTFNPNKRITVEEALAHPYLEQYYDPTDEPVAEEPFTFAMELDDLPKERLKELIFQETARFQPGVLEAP

CO[C@@H]1[C@H](N(C)C(=O)CCC(=O)NCc2cn(CCCS(=O)(=O)O)nn2)C[C@H]2O[C@]1(C)n1c3ccccc3c3c4c(c5c6ccccc6n2c5c31)C(=O)NC4 [CIMSS]
remaining activity at 10 µM [1]: 41.3%
remaining activity at 10 µM [2]: 7.08%
IC50 ([3]; Supplementary Table 1, read-out: IC50 (Molar concentration)): 1000 nM
remaining activity at 10 µM ([3]; read-out: % Enzyme Activity (relative to DMSO controls), 10µM): 19.1%
inhibition at 10 µM ([3]; read-out: inhibition of Akt2): > 75%
remaining activity at 10 µM [4]: 1.69%
remaining activity at 10 µM [5]: 62.2%
remaining activity at 10 µM [6]: 20.2%
remaining activity at 10 µM [7]: 1.49%
remaining activity at 10 µM [8]: 2.51%
remaining activity at 10 µM [9]: 69.8%
remaining activity at 10 µM [10]: 18.8%
remaining activity at 10 µM [11]: 91.8%
remaining activity at 10 µM [12]: 82.7%
remaining activity at 10 µM [13]: 2.66%
remaining activity at 10 µM [14]: 0.76%
remaining activity at 10 µM [15]: 81.8%
remaining activity at 10 µM [16]: 91.6%
remaining activity at 10 µM [17]: 44.2%
remaining activity at 10 µM [18]: 87.3%
remaining activity at 10 µM [19]: 1.14%
remaining activity at 10 µM [20]: 89%
remaining activity at 10 µM [21]: 66.4%
remaining activity at 10 µM [22]: 1.46%
remaining activity at 10 µM [23]: 67.7%
remaining activity at 10 µM [24]: 88.5%
remaining activity at 10 µM [25]: 36.4%
remaining activity at 10 µM [26]: 0.34%
remaining activity at 10 µM [27]: 154%
remaining activity at 10 µM [28]: 0.63%
remaining activity at 10 µM [29]: 97.2%
remaining activity at 10 µM [30]: 71.4%
remaining activity at 10 µM [31]: 95.5%
remaining activity at 10 µM [32]: 81.6%
remaining activity at 10 µM [33]: 96.4%
remaining activity at 10 µM [34]: 90.8%
remaining activity at 10 µM [35]: 10.7%
remaining activity at 10 µM [36]: 35.4%
remaining activity at 10 µM [37]: 2.19%
remaining activity at 10 µM [38]: 6.47%
remaining activity at 10 µM [39]: 0.86%
viability at 24 h, 0.78125 µM [40]: 84.7%
viability at 24 h, 1.5625 µM [40]: 85.5%
viability at 24 h, 3.125 µM [40]: 87.6%
viability at 24 h, 25 µM [40]: 87.9%
viability at 24 h, 50 µM [40]: 97.2%
viability at 72 h, 0.78125 µM [40]: 94.8%
viability at 72 h, 25 µM [40]: 80.4%
viability at 72 h, 50 µM [40]: 70.1%

— article PMC9569420 (Communications Biology, 2022)
